# Assay results as given in patent US10408843B2, “Compositions and methods for detecting S-nitrosylation and S-sulfinylation” (The Regents of the University of Michigan, priority 2013, dated 2019).
# Legend:
# [1] = test system: S-nitrosylated proteins in mammalian cell lysates; experiment: Gel-based labeling of endogenous S-nitrosylated proteins in cell lysates; type: biochemical, human; conditions: lysates denatured, alkylated with iodoacetamide; streptavidin detection
# Experimental: FIG. 8. Dose-dependent labeling of S-nitrosylated proteins by biotin-SO2H. 293T and PANC1 cells were lysed in 6 M urea/PBS and alkylated with 50 mM iodoacetamide for 30 minutes, followed by incubation with increasing concentrations of biotin-SO2H for 45 minutes.
# Next, the reactivity of sulfinic acids with native S-nitrosylated proteins was examined. Biotin and fluorescein N-hydroxysuccinimide (NHS) esters were directly coupled to the biological sulfinic acid metabolite hypotaurine (biotin-SO2H) or the sulfonic acid metabolite taurine (biotin-SO3H). Each probe was incubated with mammalian cell lysates pre-alkylated with excess iodoacetamide (FIG. 1b) in 6 M urea/phosphate buffered saline (PBS), and separated by non-reducing SDS-PAGE for transfer to nitrocellulose and streptavidin detection. […]
# Cells and lysates were protected from light and kept on ice throughout the labeling protocol, except when noted. […] Lysate protein concentrations were quantified using the Bio-Rad DC assay, and diluted 3 mg/mL in 6 M urea/PBS. […] For in-gel fluorescence analysis, samples were loaded without boiling using non-reducing SDS-PAGE loading buffer for SDS-PAGE separation. […] In-gel fluorescence and streptavidin blots were analyzed using a GE typhoon scanner at appropriate wavelengths (488/526 for fluorescein and 633/670 for Cy5-Streptavidin).
# 293T cell lysates = experiment: SILAC quantitative mass spectrometry of biotin-SO2H enrichment; type: biochemical, human; conditions: quantified in ≥3 replicates, ≥3 quantified peptides; 400 μM probe
# Experimental: FIG. 16. Quantitative analysis of biotin-SO2H enrichment in 293T cell lysates. Samples were prepared in two sets, one with biotin-SO2H in the “Light” matched with biotin-SO3H in the “Heavy” (N=2), and the other in reverse (N=2). Each was ran as two technical replicated and SILAC ratios (biotin-SO2H/biotin-SO3H) were combined across experiments. “Directions Detected” describes the set of SILAC samples where the protein was quantified. FORWARD refers to biotin-SO2H (light)/biotin-SO3H (heavy), and REVERSE is the opposite direction, biotin-SO2H (heavy)/biotin-SO3H (light). […] Label-free quantification was performed using the Top3 method from the biotin-SO2H labeled pair.
# Next, biotin-SO2H labeling was combined with stable-isotope labeling with amino acids in cell culture (SILAC) for quantitative mass spectrometry annotation of endogenous S-sulfinylation in mammalian cells. […] Peptides were analyzed using data-independent acquisition methods in combination with ion mobility separation (HDMS^E) and mobility-dependent collision energy assignment for enhanced fragmentation (see, e.g., Distler, U. et al. Nat Methods (2013)). Through a combination of 4 biological replicates, each with 2 technical replicates, a total of 992 proteins were identified with SILAC ratios >5 (biotin-SO2H/biotin-SO3H), quantified in ≥3 replicates, and represented by ≥3 quantified peptides (FIG. 16). […]
smiles,measurement,setting,value
"O=C(CCCC[C@@H]1SC[C@@H]2NC(=O)N[C@@H]21)NCCS(=O)O [biotin-SO2H, 2-(5-((3aS,4S,6aR)-2-oxohexahydro-1H-thieno[3,4-d]imidazol-4-yl)pentanamido)ethanesulfinic Acid]",labeling of mammalian proteins,[1],labels distinct mammalian proteins
same,proteins identified with SILAC ratios >5 (biotin-SO2H/biotin-SO3H),293T cell lysates,992 proteins
